Our source for the water solubility values is US9624237B2 (priority 2015, dated 2017).

The nature of the series: Water solubility examination. Conditions: 1.44 mg of oridonin in 4 ml water. The format is physicochemical. The procedure:
Water solubility of the present nanoparticle is examined. 1.44 mg of oridonin is dissolved in 4 ml water. […] Large amount of white insoluble white oridonin powder is observed. On the other hand, oridonin functionalized selenium nanoparticle containing 1.68 mg of oridonin is prepared according to the present invention and dissolved in 4 ml water. […] The oridonin functionalized selenium nanoparticle aqueous solution is orangey red in color and no insoluble residue is observed.

With Oridonin, the water solubility result is on record as “insoluble in water”.
